The target in data set [1] is GABA-A receptor; anion channel. The data set is described as follows: In vitro affinity at the Benzodiazepine receptor (BzR) is its ability to displace [3H]diazepam from BzR. The class given is protein-complex assay, Rattus norvegicus.
Data set [2] can be described thus: Solubility in water. The following applies: read-out: S. The format is physicochemical.
The subject of data set [3] is Rattus norvegicus. Briefly: In vivo proconvulsant activity in rats. The format is functional.
For data set [4], the species on record is Rattus norvegicus. The data set is described as follows: Dose required to induce convulsions in 50% of the rats. The class given is functional.
For data set [5], the system named is Monkey. Briefly: Anxiogenic activity in vivo in Rhesus monkeys. The class given is functional. The following applies: Cercopithecidae, in Macaca mulatta.
Data set [6] concerns Mus musculus. The data set is described as follows: Dose required to induce convulsions in 50% of the mice.(In vivo convulsant activity.).
Data set [7] deals with Monkey. The data set is described as follows: Anxiogenic activity in vivo in Rhesus monkeys; Potent activity. The format is functional, organism-based. The note with it: Cercopithecidae.
Data set [8] concerns Mus musculus. The data set is described as follows: Dose required to induce convulsions in 50% of the mice that had been previously treated by a subconvulsant dose of pentylenetetrazole (40 mg/kg).
The subject of data set [9] is Mus musculus. The data set is described as follows: Dose required to induce convulsions in 50% of the mice.(In vivo proconvulsant activity.).
Data set [10] has as its system Mus musculus. The data set is described as follows: In vivo dose required to induce convulsions in 50% of the mice previously treated by a subconvulsant dose of pentylenetetrazole (40 mg/kg).

The source made the active and inactive calls. The rule behind the calls is not given here. Where only a bound is given, the exact number is not on record here.

In general, IC50 refers to the midpoint of a concentration-inhibition curve. For `c1ccc2c(c1)[nH]c1cnc3c(nc4ccccn43)c12`, the IC50 in [1] worked out at 0.039 µM.
On to `CCOC(=O)c1cc2c3ccccc3nc-2c[nH]1.Cl`, for which the solubility in data set [2] worked out at 1000 µg/mL.
For orientation: ED50 means the dose that gives a 50% effect, or the effect in half of the subjects. Turning to `CCOC(=O)c1cc2c(cn1)[nH]c1ccccc12`, the ED50 with Rattus norvegicus [3] is 75 mg/kg; in the data set filed under Rattus norvegicus [4], 3.2 mg/kg; in the data set with Monkey [5] it was 2.5 mg/kg. Also, in data set [2], the solubility was less than 200 µg/mL.
Consider `CCc1c(C(=O)OC)[nH]cc2nc3cc(OC)c(OC)cc3c1-2.Cl`, for which the IC50 in data set [1] worked out at 0.001 µM. The solubility in [2] is less than 200 µg/mL. For the same molecule, it took a dose of 4 mg/kg to reach the 50% effect level with Mus musculus [6] (ED50).
`Cl.c1cnc2c3[nH]cc4[nH]c5ccccc5c4c-3nc2c1` had an IC50 in [1] of 0.0102 µM. Moreover, in [2], the solubility turned out to be 11000 µg/mL.
In [1], `CCOc1cc2c3ccccc3nc-2c[nH]1.Cl` yielded a half-inhibitory concentration (IC50) of 0.024 µM. Further, the ED50 entry in the data set with Monkey [7] was “Active”. The ED50 in the data set with Rattus norvegicus [3] and in the data set on Mus musculus [8] was 7 mg/kg in each case. Further, the solubility in data set [2] was determined as 12000 µg/mL.
Consider `c1ccc2c(c1)ccn1c2nc2c3c4ccccc4nc-3c[nH]c21`, for which the IC50 in [1] is greater than 2 µM.
Still for that read-out and setting: the value for `c1ccc2c3c4ncc5[nH]c6ccccc6c5c4nc-3c[nH]c2c1` was greater than 1 µM; that for `c1ccc2c(c1)ccc1[nH]c3c4c5ccccc5nc-4c[nH]c3c12` was greater than 0.125 µM.
In turn, `c1ccc2c(c1)ccc1nc3c4c5ccccc5nc-4c[nH]c3n12` yielded an IC50 in data set [1] greater than 3 µM.
In turn, `Cl.c1ccc2c(c1)[nH]c1c2ncc2[nH]c3ccccc3c21` yielded an ED50 with Mus musculus [9] of 15.5 mg/kg. In [2], the solubility is less than 2000 µg/mL.
In data set [1], `c1ccc2c(c1)cnn1c2nc2c3c4ccccc4nc-3c[nH]c21` came in with an IC50 of 0.2 µM.
Take `Cl.c1ccc2c(c1)[nH]c1c[nH]c3c4cccnc4nc-3c12`: the IC50 in [1] turned out to be 0.0106 µM. Moreover, in data set [2], the solubility came to 7600 µg/mL. The molecule further had an ED50 in the data set on Mus musculus [10] of 11 mg/kg.
`c1ccc2c(c1)ccc1c3[nH]cc4nc5ccccc5c-4c3[nH]c21` registered an IC50 in data set [1] greater than 0.125 µM.
Molecule `Cl.c1ccc2c(c1)[nH]c1c[nH]c3c4ccncc4nc-3c12` displayed an IC50 in data set [1] of 0.0515 µM. Further, in data set [2], the solubility was determined as 13000 µg/mL. The same molecule returned an ED50 in the data set with Mus musculus [10] of 25 mg/kg.

(Values after ChEMBL document CHEMBL1125343, “Molecular yardsticks. Rigid probes to define the spatial dimensions of the benzodiazepine receptor binding site” (J Med Chem, 1992).)
